Measured values reported in patent publication US5597848A, “Benzenesulfonamide derivatives and use thereof” (Hokuriku Seiyaku Co., Ltd., priority 1992, dated 1997).

Key:
thromboxane A2 receptor = molecular target: T1, thromboxane A2 receptor (Cavia porcellus, UniProt A0A286Y4I8); test: Thromboxane A2 antagonistic effect: inhibition of U-46619-induced platelet aggregation in guinea-pig platelet-rich plasma; type: cell-based, guinea-pigs; conditions: guinea-pig PRP, U-46619 2 μg/ml, 2 min at 37° C.; read-out: IC50 (50% inhibition against platelet aggregation)
T1 construct: platelet-rich plasma; endogenous in cells; host or cells: guinea-pig platelets in platelet-rich plasma
T1 sequence (A0A286Y4I8 1-347): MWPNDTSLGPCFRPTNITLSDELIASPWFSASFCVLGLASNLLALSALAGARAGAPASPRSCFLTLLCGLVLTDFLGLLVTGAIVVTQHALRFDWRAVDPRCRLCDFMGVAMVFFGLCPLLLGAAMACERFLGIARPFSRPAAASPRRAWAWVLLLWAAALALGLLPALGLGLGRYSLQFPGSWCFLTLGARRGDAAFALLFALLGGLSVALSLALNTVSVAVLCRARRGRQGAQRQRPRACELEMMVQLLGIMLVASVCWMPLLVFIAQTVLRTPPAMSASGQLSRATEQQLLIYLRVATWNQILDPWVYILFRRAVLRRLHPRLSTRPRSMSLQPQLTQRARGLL
Procedure: Blood was collected from the abdominal aorta of guinea-pigs (about 400 g wt.) into 1/10 volume of 3.8% sodium citrate, and then platelet-rich plasma (PRP: 6×10^5 cells/μl) was obtained by centrifugation. A cuvette was filled with PRP 190 μl and set in an aggregometer (Hema Tracer I; Niko Bioscience). Incubation was carried out for 2 min. at 37° C. after the addition of 1 μl of dimethyl sulfoxide solution of test compounds. To the PRP, 10 μl of U-46619 (Cayman), a thromboxane A2 /prostaglandin H2 receptor agonist and potent platelet aggregation inducer, was added at the final concentration of 2 μg/ml, and platelet aggregation was measured by an aggregometer.

leukotriene D4 = molecular target: T2, leukotriene D4 (Cavia porcellus, UniProt Q2NNR5); test: Leukotriene D4 antagonistic effect in isolated trachea (Schild method); design: species or system male Hartley guinea-pigs; conditions: isolated trachea, 30 min treatment, indomethacin 3×10^-6 M, Krebs 37° C.
T2 construct: tracheas were isolated from male Hartley guinea-pigs; from tissue; host or cells: isolated trachea of male Hartley guinea-pigs
T2 sequence (Q2NNR5 1-340): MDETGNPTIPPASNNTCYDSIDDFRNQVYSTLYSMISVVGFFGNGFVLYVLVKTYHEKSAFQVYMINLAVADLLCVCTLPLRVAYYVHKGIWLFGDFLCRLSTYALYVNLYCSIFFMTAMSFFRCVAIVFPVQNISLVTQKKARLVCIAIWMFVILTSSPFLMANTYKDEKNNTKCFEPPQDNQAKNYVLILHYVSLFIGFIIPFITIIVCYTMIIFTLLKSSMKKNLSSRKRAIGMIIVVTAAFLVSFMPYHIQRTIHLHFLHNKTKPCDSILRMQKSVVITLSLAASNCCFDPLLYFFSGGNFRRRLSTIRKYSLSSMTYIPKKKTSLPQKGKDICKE
Procedure: According to an ordinary method, tracheas were isolated from male Hartley guinea-pigs, and ring specimens of approximately […] length were prepared. These specimens were suspended isotonically in organ baths that contained Krebs solution at 37° C. under a resting tension of 0.5 g. After repeated contractions with acetylcholine (1×10^-6 M; Ovisot for injection, Daiichi Seiyaku), and the first concentration-response curves was obtained by cummulative applications of leukotriene D4 (ULTRA FINE) into the organ baths. After treatments with test compounds at adequate concentrations for 30 min, the second concentration-response curves were obtained in the same manner as first applications. pKB values were calculated using these two concentration-response curves according to the method of Schild [Pharmacological Review, Vol. 9, 242 (1957)]. Indomethacin (3×10^-6 M; Sigma) was added beforehand to the organ bath to eliminate possible affections by thromboxane A2 and prostaglandin produced by stimulus of leukotriene D4 [Japan J. Pharmacol., Vol. 60, 227 (1992)].

SMILES | IC50 (thromboxane A2 receptor) [nM] | Kb (leukotriene D4) [nM]
C[C@H]1CC[C@H](C(NS(=O)(=O)c2ccc(Cl)cc2)c2ccc(CCCC(=O)O)cc2)CC1 (relative stereo) [Example 76, trans-4-[4-[(4-Chlorophenylsulfonylamino)(4-methylcyclohexyl)methyl]phenyl]butyric Acid] |  | 200
O=C(O)CCCc1ccc(C(CCCCC2CCCCC2)NS(=O)(=O)c2ccc(Cl)cc2)cc1 (centres unmarked) [Example 82, 4-[4-[1-(4-Chlorophenylsulfonylamino)-5-cyclohexylpentyl]phenyl]butyric Acid] | 400 | 
CCCCC[C@H]1CC[C@H](C(NS(=O)(=O)c2ccc(Cl)cc2)c2ccc(CCCC(=O)O)cc2)CC1 (relative stereo) [Example 77, trans-4-[4-[(4-Chlorophenylsulfonylamino)(4-pentylcyclohexyl)methyl]phenyl]butyric Acid] |  | 631
CCCCc1ccc(CCC(NS(=O)(=O)c2ccc(Cl)cc2)c2ccc(CCCC(=O)O)cc2)cc1 (centres unmarked) [Example 117, 4-[4-[3-(4-Butylphenyl)-1-(4-chlorophenylsulfonylamino)propyl]phenyl]butyric Acid] |  | 251
O=C(O)CCCc1ccc(C(CCCCCc2ccccc2)NS(=O)(=O)c2ccc(Cl)cc2)cc1 (centres unmarked) [Example 116, 4-[4-[1-(4-Chlorophenylsulfonylamino)-6-phenylhexyl]phenyl]butyric Acid] | 500 | 200
Cc1ccc(S(=O)(=O)NC(Cc2ccccc2)c2ccc(CCCC(=O)O)cc2)cc1 (centres unmarked) [Example 90, 4-[4-[1-(p-Tolylsulfonylamino)-2-phenylethyl]phenyl]butyric Acid] | 320 | 
O=C(O)CCCc1ccc(C(Cc2ccccc2F)NS(=O)(=O)c2ccc(Cl)cc2)cc1 (centres unmarked) [Example 93, 4-[4-[1-(4-Chlorophenylsulfonylamino)-2-(2-fluorophenyl)ethyl]phenyl]butyric Acid] | 320 | 
CC(C)CC(NS(=O)(=O)c1ccc(Cl)cc1)c1ccc(CCCC(=O)O)cc1 (centres unmarked) [Example 70, 4-[4-[1-(4-Chlorophenylsulfonylamino)-3-methylbutyl]phenyl]butyric Acid] | 320 | 
O=C(O)CCCc1ccc(C(CC2CCCC2)NS(=O)(=O)c2ccc(Cl)cc2)cc1 (centres unmarked) [Example 78, 4-[4-[1-(4-Chlorophenylsulfonylamino)-2-cyclopentylethyl]phenyl]butyric Acid] | 320 | 1000
O=C(O)CCCc1ccc(C(CCCc2ccccc2)NS(=O)(=O)c2ccc(Cl)cc2)cc1 (centres unmarked) [Example 114, 4-[4-[1-(4-Chlorophenylsulfonylamino)-4-phenylbutyl]phenyl]butyric Acid] | 320 | 
CCCCCCCC(NS(=O)(=O)c1ccc(Cl)cc1)c1ccc(CCCC(=O)O)cc1 (centres unmarked) [Example 100, 4-[4-[1-(4-Chlorophenylsulfonylamino)octyl]phenyl]butyric Acid] | 790 | 
O=C(O)CCCc1ccc(C(CC2CC3CCC2C3)NS(=O)(=O)c2ccc(Cl)cc2)cc1 (centres unmarked) [Example 85, 4-[4-[1-(4-Chlorophenylsulfonylamino)-2-(2-norbornyl)ethyl]phenyl]butyric Acid] | 400 | 158
O=C(O)CCCc1ccc(C(CC23CC4CC(CC(C4)C2)C3)NS(=O)(=O)c2ccc(Cl)cc2)cc1 (centres unmarked) [Example 84, 4-[4-[2-(1-Adamantyl)-1-(4-chlorophenylsulfonylamino)ethyl]phenyl]butyric Acid] |  | 200
O=C(O)CCCCc1ccc(C(CC2CCCCC2)NS(=O)(=O)c2ccc(Cl)cc2)cc1 (centres unmarked) [Example 113, 5-[4-[1-(4-Chlorophenylsulfonylamino)-2-cyclohexylethyl]phenyl]valeric Acid] | 400 | 39.8

Second part, the molecule after the results:

IC50 (thromboxane A2 receptor) [nM] | Kb (leukotriene D4) [nM] | SMILES
320 |  | O=C(O)CCCc1ccc(C(Cc2ccccc2)NS(=O)(=O)c2ccc(F)cc2)cc1 (centres unmarked) [Example 88, 4-[4-[1-(4-Fluorophenylsulfonylamino)-2-phenylethyl]phenyl]butyric Acid]
320 | 398 | O=C(O)CCCc1ccc(C(NS(=O)(=O)c2ccc(Cl)cc2)C2CCCCCC2)cc1 (centres unmarked) [Example 75, 4-[4-[(4-Chlorophenylsulfonylamino)cycloheptylmethyl]phenyl]butyric Acid]
160 |  | CCC(NS(=O)(=O)c1ccc(Cl)cc1)c1ccc(CCCC(=O)O)cc1 (centres unmarked) [Example 64, 4-[4-[1-(4-Chlorophenylsulfonylamino)propyl]phenyl]butyric Acid]
320 |  | O=C(O)CCCCc1ccc(C(Cc2ccccc2)NS(=O)(=O)c2ccc(Cl)cc2)cc1 (centres unmarked) [Example 92, 5-[4-[1-(4-Chlorophenylsulfonylamino)-2-phenylethyl]phenyl]valeric Acid]
320 |  | O=C(O)CCCc1ccc(C(Cc2ccccc2)NS(=O)(=O)c2ccccc2)cc1 (centres unmarked) [Example 87, 4-[4-[2-phenyl-1-(phenylsulfonylamino)ethyl]phenyl]butyric Acid]
320 |  | COc1ccc(S(=O)(=O)NC(Cc2ccccc2)c2ccc(CCCC(=O)O)cc2)cc1 (centres unmarked) [Example 91, 4-[4-[1-(4-Methoxyphenylsulfonylamino)-2-phenylethyl]phenyl]butyric Acid]
32 |  | O=C(O)CCCc1ccc(C(Cc2ccccc2)NS(=O)(=O)c2ccc(Br)cc2)cc1 (centres unmarked) [Example 89, 4-[4-[1-(4-Bromophenylsulfonylamino)-2-phenylethyl]phenyl]butyric Acid]
320 |  | CC(C)(C)CC(NS(=O)(=O)c1ccc(Cl)cc1)c1ccc(CCCC(=O)O)cc1 (centres unmarked) [Example 72, 4-[4-[1-(4-Chlorophenylsulfonylamino)-3,3-dimethylbutyl]phenyl]butyric Acid]
320 |  | O=C(O)CCCc1ccc(C(CCCCc2ccccc2)NS(=O)(=O)c2ccc(Cl)cc2)cc1 (centres unmarked) [Example 115, 4-[4-[1-(4-Chlorophenylsulfonylamino)-5-phenylpentyl]phenyl]-butyric Acid]
250 |  | O=C(O)CCc1ccc(C(Cc2ccccc2)NS(=O)(=O)c2ccc(Cl)cc2)cc1 (centres unmarked) [Example 86, 3-[4-[1-(4-Chlorophenylsulfonylamino)-2-phenylethyl]phenyl]propionic Acid]
160 | 501 | O=C(O)CCCc1ccc(C(Cc2ccc(F)cc2)NS(=O)(=O)c2ccc(Cl)cc2)cc1 (centres unmarked) [Example 95, 4-[4-[1-(4-Chlorophenylsulfonylamino)-2-(4-fluorophenyl)ethyl]phenyl]butyric Acid]
63 |  | O=C(O)CCCc1ccc(C(Cc2cccc(F)c2)NS(=O)(=O)c2ccc(Cl)cc2)cc1 (centres unmarked) [Example 94, 4-[4-[1-(4-Chlorophenylsulfonylamino)-2-(3-fluorophenyl)ethyl]phenyl]butyric Acid]
